Measured values taken from patent US20050060764A1, “Mouse model for bone metabolism” (priority 2003, published 2005).
Strand notation (5' to 3'): a small letter for the sugar, then the base; units joined by * are phosphorothioate-linked, units joined directly phosphodiester-linked; [ ] holds rarer units or linkages, { } end groups; capitals alone tell only the bases. e = 2'-O-(2-methoxyethyl) (MOE); [5mC] = 5-methylcytosine; d = 2'-deoxy (DNA)

Experiments:
[1] = tested on: RANK mRNA; assay: Antisense inhibition of RANK mRNA expression in proximal tibia after PTH infusion in mice: specificity and dose response (Table 15); assay type: in vivo, mouse; conditions: for RANK mRNA % inhibition (normalized to PTH): then 24 h PTH, proximal tibia
Method: (§1) In accordance with the present invention, the specificity of RANK inhibition by a RANK antisense oligonucleotide was compared to that of an 8-base pair mismatch oligonucleotide.
(§2) ISIS 181080 ([…], SEQ ID NO: 357) is an antisense oligonucleotide targeted to mouse RANK. ISIS 208565 ([…], SEQ ID NO: 358) is an 8-base pair mismatch oligonucleotide. […] All cytidine residues are 5-methylcytidines.
(§3) Female Swiss-Webster mice (5-8 wks old) fed a low-calcium diet were treated for two weeks with either ISIS 181080 or ISIS 208565. The dose of oligonucleotide was either 40 mg/kg, 30 mg/kg, 20 mg/kg, or 10 mg/kg. After the 2-week treatment with oligonucleotides, the mice were infused with PTH by subcutaneously implanted mini-pumps at a dose of 4 ug/100 g over 24 hours. A group of control mice were dosed with either saline, PTH alone (1 ug/100 g/6 hr) or calcitonin (400 ng) plus PTH (1 ug/100 g/6 hr). After 24 hours of PTH infusion (total PTH delivery of 4 ug/100 g), the mice were sacrificed and measurements were made of serum calcium with the Sigma Diagnostics Calcium Kit (Sigma-Aldrich) and RANK mRNA expression in proximal tibia (as described in other examples herein). The results shown in Table 15 are the average from four mice per group. Percent inhibition of RANK mRNA is normalized to PTH treatment alone. […] The data also illustrate that these effects are occurring due to an antisense mechanism.

[2] = Serum calcium concentration after PTH infusion in mice: specificity and dose response of RANK antisense oligonucleotide (Table 15); assay type: in vivo, mouse; conditions: for serum calcium: then 24 h PTH
Method: as §1, §2, §3

[3] = tested on: RANKL mRNA; assay: Antisense inhibition of RANKL mRNA expression followed by PTH treatment in primary mouse osteoblast cells: dose response (Table 8); assay type: cell-based; conditions: primary mouse osteoblast cells; 63 nM, 125 nM, 250 nM, or 500 nM, 24 hours, FuGENE 6; 10 nM PTH last 2 hours
Method: Primary mouse osteoblasts were prepared from calvaria of neonatal mice purchased from Charles River Laboratories. […] Cells were not passaged. Cells were seeded onto 6-well plates (Falcon-Primaria #353846) at a density of 50,000 cells/well for use in antisense oligonucleotide transfection.
In a further embodiment of this invention, the effect of RANKL antisense oligonucleotides and PTH treatment on the expression of RANKL was determined in primary osteoblast cells isolated from mice skull caps.
ISIS 143624 ([…], SEQ ID NO: 348) was used as a control oligonucleotide. […] All cytidine residues are 5-methylcytidines.
Primary osteoblastic cells were transfected for 24 hours with either Isis 180819 (SEQ ID NO: 185) or the control oligo ISIS 143624 (SEQ ID NO: 348) at a dose of […], 125 nM, 250 nM, or 500 nM by the methods described herein but using the transfection reagent FuGENE 6 (Roche Applied Science, Indianapolis, Ind.). During the last 2 hours of oligonucleotide transfection, the cells were treated with 10 nM PTH. The RNA was then harvested and the expression levels of […] were measured by the methods described herein. The results are expressed as percent inhibition relative to PTH treatment alone and represent the average from three experiments.

[4] = mice, two weeks 10, 20, 30 or 40 mg/kg, 24 hours PTH infusion

Sequence	RANK mRNA % inhibition (normalized to PTH) ([1]; 10 mg/kg two weeks) [%]	RANK mRNA % inhibition (normalized to PTH) ([1]; 20 mg/kg two weeks) [%]	RANK mRNA % inhibition (normalized to PTH) ([1]; 30 mg/kg two weeks) [%]	RANK mRNA % inhibition (normalized to PTH) ([1]; 40 mg/kg two weeks) [%]	serum calcium ([2]; 10 mg/kg two weeks) [mg/dL]	serum calcium ([2]; 20 mg/kg two weeks) [mg/dL]	serum calcium ([2]; 30 mg/kg two weeks) [mg/dL]	serum calcium ([2]; 40 mg/kg two weeks) [mg/dL]	expression of RANK mRNA in proximal tibia [1, 4]	PTH-induced rise in serum calcium concentration [2, 4]	inhibition of PTH-induced increase in RANKL mRNA expression [3]
TCCTCGAGAGGTCTCCTTGC (antisense eT*e[5mC]*e[5mC]*eT*e[5mC]*dG*dA*dG*dA*dG*dG*dT*d[5mC]*dT*d[5mC]*e[5mC]*eT*eT*eG*e[5mC]) [ISIS 208565, 8-base pair mismatch oligonucleotide, 2′-MOE gapmer, reference compound]	0	0	19	7	21	17	18	16	–	–	–
GAGCTCCCGGACCCTGAGGC (listed as DNA, chemistry not given here) [ISIS 181080, antisense oligonucleotide targeted to mouse RANK]	47	38	48	65	23	17	15	16	inhibits expression of RANK mRNA in vivo	lessens the PTH-induced rise in serum calcium concentration	–
TGCTCAGCGAGTGTGCCAGC (sugars by position and backbone not given here; further chemistry not fully specified) [ISIS 143624, control oligonucleotide, 2′-MOE gapmer, reference compound]	–	–	–	–	–	–	–	–	–	–	unable to reduce RANKL mRNA levels
